In PubChem BioAssay (NCI):
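Test compounds were applied to cells in 96-well plates for 48 hours at 5 doses. Here, GI50 denotes the concentration required for 50% inhibition of growth. TGI denotes the concentration required for complete inhibition of growth.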

Tests used:
Assay in all cases: NCI tumour cell line growth inhibition, 48 h
[1] = system: MOLT-4 leukemia
[2] = system: UO-31 renal
[3] = system: OVCAR-5 ovarian
[4] = system: SNB-75 CNS
[5] = system: NCI-H460 lung
[6] = system: SR leukemia
[7] = system: SK-MEL-2 melanoma
[8] = system: MCF7 breast
[9] = system: NCI-H522 lung
[10] = system: PC-3 prostate

SMILES | GI50 [1] | TGI [1] | GI50 [2] | TGI [2] | GI50 [3] | TGI [3] | GI50 [4] | TGI [4] | GI50 [5] | TGI [5] | GI50 [6] | TGI [6] | GI50 [7] | TGI [7] | GI50 [8] | TGI [8] | GI50 [9] | TGI [9] | GI50 [10] | TGI [10]
CCS/C(Nc1ccccc1)=C(\C#N)C(=O)N/N=C/c1ccc(Cl)cc1Cl | 3.48 µM | > 100 µM | 6.91 µM | > 100 µM | 8.25 µM | > 100 µM | 2.15 µM | 9.37 µM | 3.16 µM | > 100 µM | 3.45 µM | > 100 µM | 3.24 µM | 43.6 µM | 2.99 µM | > 100 µM |  |  |  | 
Cc1ccc(-c2cc(/C=N/O)on2)cc1 | 21.9 µM | > 100 µM | 36.4 µM | > 100 µM | > 100 µM | > 100 µM |  |  | 63.6 µM | > 100 µM |  |  | 97.3 µM | > 100 µM | 55.1 µM | > 100 µM | 62.4 µM | > 100 µM | 63 µM | > 100 µM
CCc1oc2ccc(OC)c3c2c1C=CC=C3 |  | > 100 µM |  | > 100 µM |  | > 100 µM |  | > 100 µM |  | > 100 µM |  | > 100 µM |  | > 100 µM |  |  |  | > 100 µM |  | 
OC1C2C=CCC1CCC2 (configuration not stated) |  | > 100 µM |  | > 100 µM |  | > 100 µM |  | > 100 µM |  | > 100 µM |  | > 100 µM |  | > 100 µM |  |  |  | > 100 µM |  | 
C=C(C)[C@@H]1CC[C@]2(C)[C@H](C=CC3=C4C[C@@](C)(CO)CC[C@]4(C)CC[C@]32C)[C@@]1(C)CCCN |  |  | 1.34 µM | 2.65 µM | 1.71 µM | 3.09 µM | 1.53 µM | 2.97 µM | 1.71 µM | 3.33 µM |  |  | 1.92 µM | 3.58 µM | 1.6 µM | 3.4 µM |  |  | 1.7 µM | 3.28 µM
CCC[CH2][Sn]1([CH2]CCC)[O]C(=O)c2cc(C)ccc2[O]1 | 0.301 µM | 1.09 µM | 1.19 µM | 2.45 µM | 1.66 µM | 3.04 µM | 0.291 µM | 1.2 µM | 1.54 µM | 2.87 µM | 0.295 µM | 1.28 µM | 0.303 µM | 0.808 µM |  |  | 0.0859 µM | 0.232 µM |  | 
CC[O-].CC[O-].O=C([CH-]C(=O)c1ccccc1)c1ccccc1.O=C([CH-]C(=O)c1ccccc1)c1ccccc1.[Ti+4] | 46.5 µM | > 100 µM | > 100 µM | > 100 µM | > 100 µM | > 100 µM | 61.6 µM | > 100 µM | 44.3 µM | > 100 µM | 62.4 µM | > 100 µM | > 100 µM | > 100 µM |  |  | > 100 µM | > 100 µM |  | 
Cc1cc2c(cc1C)[n+]([O-])c(-c1c(Cl)cccc1Cl)c(N)[n+]2[O-] |  | > 100 µM |  | 88.8 µM |  | > 100 µM |  | > 100 µM |  | > 100 µM |  |  |  | > 100 µM |  |  |  | 28 µM |  | 
Cc1cc(C)c2[s+]snc2c1 |  | > 100 µM |  | > 100 µM |  | > 100 µM |  | > 100 µM |  | > 100 µM |  | 77 µM |  | > 100 µM |  |  |  | 77.6 µM |  | 
C[C@]12CCCC(=O)C1C[C@H](C(=O)O)CC2 (some centres not stated) |  | > 100 µM |  | > 100 µM |  | > 100 µM |  | > 100 µM |  | > 100 µM |  | > 100 µM |  | > 100 µM |  |  |  | > 100 µM |  | 
